Laboratory results as given in patent US10478425B2, “5-phenylazaindole derivative having AMPK-activating activity” (Shionogi & Co., Ltd., priority 2016, dated 2019).

Target: T1, Human AMPK α2β2γ1 (Homo sapiens, UniProt O43741+P54646)
T1 construct: The full length cDNAs of human AMPK β2 (NM_005399.3) and human AMPK α2 (NM_006252.3); The full length cDNAs of human AMPK β2 (NM_005399.3); the full length cDNA of human AMPK γ1 (NM_002733.3) had been inserted into pET28b(+); 6×His (N); made in house; host or cells: Escherichia coli BL21 CodonPlus (DE3)-RIL
T1 sequence (P54646 whole entry): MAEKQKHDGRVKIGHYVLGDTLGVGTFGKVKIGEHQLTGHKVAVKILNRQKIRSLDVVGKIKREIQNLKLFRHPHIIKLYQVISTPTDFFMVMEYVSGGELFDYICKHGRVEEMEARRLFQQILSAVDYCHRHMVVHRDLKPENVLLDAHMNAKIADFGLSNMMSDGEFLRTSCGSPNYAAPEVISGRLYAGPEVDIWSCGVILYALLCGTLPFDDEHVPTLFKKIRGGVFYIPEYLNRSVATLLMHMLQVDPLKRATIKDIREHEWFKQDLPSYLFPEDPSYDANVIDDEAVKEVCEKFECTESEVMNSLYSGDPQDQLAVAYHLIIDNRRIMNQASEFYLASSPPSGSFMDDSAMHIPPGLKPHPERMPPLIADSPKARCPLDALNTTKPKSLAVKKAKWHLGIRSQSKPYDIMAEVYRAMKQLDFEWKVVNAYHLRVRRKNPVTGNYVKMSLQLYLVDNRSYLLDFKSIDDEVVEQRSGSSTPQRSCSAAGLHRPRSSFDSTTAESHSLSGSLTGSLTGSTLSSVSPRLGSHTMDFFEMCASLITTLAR
T1 sequence (O43741 whole entry): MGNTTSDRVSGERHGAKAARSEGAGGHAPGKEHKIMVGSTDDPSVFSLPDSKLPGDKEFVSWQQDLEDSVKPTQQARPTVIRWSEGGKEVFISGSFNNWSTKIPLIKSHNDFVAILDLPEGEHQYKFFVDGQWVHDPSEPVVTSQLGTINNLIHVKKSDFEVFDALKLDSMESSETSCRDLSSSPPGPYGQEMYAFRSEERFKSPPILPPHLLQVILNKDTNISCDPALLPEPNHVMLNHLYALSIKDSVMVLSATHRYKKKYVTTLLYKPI
T1 sequence (P54619 whole entry partner): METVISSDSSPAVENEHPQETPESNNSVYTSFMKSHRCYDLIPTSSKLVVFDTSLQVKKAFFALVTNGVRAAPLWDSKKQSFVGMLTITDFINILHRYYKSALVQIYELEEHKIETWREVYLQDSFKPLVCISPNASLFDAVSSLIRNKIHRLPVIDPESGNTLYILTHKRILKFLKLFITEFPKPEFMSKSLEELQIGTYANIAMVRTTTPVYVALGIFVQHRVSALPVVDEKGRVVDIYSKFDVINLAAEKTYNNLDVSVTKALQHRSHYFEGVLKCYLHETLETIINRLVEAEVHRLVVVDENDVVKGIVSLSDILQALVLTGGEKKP
Assay: Test Example 2: activation of phosphorylated human AMPK α2β2γ1 (mobility-shift kinase assay, FL-Peptide 7)
Assay type: biochemical
Details: for EC150: compound concentration showing 150% relative to the control (100%), human AMPK α2β2γ1 phosphorylated with CaMKK2; for Emax: maximum rate of increase in activity within the measurement range, control = 100%, read-out: Emax
Experimental: The full length cDNAs of human AMPK β2 (NM_005399.3) and human AMPK α2 (NM_006252.3) were inserted into the MCS1 and MCS2 of the pETDuet-1 vector to prepare a human AMPK β2 and human AMPK α2 (6×His tag at the 5′ terminus) expressing plasmid. The plasmid was cotransfected with an expression plasmid, in which the full length cDNA of human AMPK γ1 (NM_002733.3) had been inserted into pET28b(+), into BL21 CodonPlus (DE3)-RIL to obtain an expression strain. The expression strain was cultured in TB medium, followed by induction with 0.5 mM IPTG, and cultured at 25° C. for 3 hours and then harvested. After ultrasonication, supernatant was collected and applied to Histrap FF column (GE) and RESOUECE Q column (GE) to prepare 12.5 mg of purified sample containing three types of subunit from 1.8 L of broth.
An expression vector, in which the full length cDNA of human CAMKK β (NM_172226.1) had been inserted into pGEX-6P-3, was transfected into BL21 Star (DE3). The expression strain was cultured in TB medium, followed by induction with 0.5 mM IPTG, and cultured at 25° C. for 3 hours and then harvested. After ultrasonication, supernatant was collected and applied to GSTrap FF column (GE) to prepare 14 mg of GST-fused CAMKK β from 720 ml of broth.
Thus, phosphorylation treatment was carried out as pretreatment.
Human AMPK α2β2γ1 in an amount to give a conversion rate of approximately 10% by reaction for 2 hours, and CaMKK2 in an amount capable of sufficiently imparting activity to AMPK for one hour were mixed in a buffer solution consisting of a 50 mM HEPES-NaOH buffer solution (pH 7.0), 100 mM NaCl, 5 mM magnesium chloride, 0.1% bovine serum albumin, 0.2 mM sodium orthovanadate(V), 1 mM ethylene glycol-bis(2-aminoethyl ether)-N,N,N′,N′-tetraacetic acid (EGTA), 5 mM disodium β-glycerophosphate, 1 mM dithiothreitol and 0.2 mM ATP, and the resulting liquid was left to stand at 25° C. for 1 to 1.5 hours to sufficiently phosphorylate AMPK.
After that, to the enzyme liquid, which had been subjected to phosphorylation treatment, a compound dissolved in DMSO was added so as to have a 1% DMSO concentration. The resulting liquid was left to stand for 10 minutes.
To the liquid, a substrate solution consisting of a 50 mM HEPES-NaOH buffer solution (pH 7.0), 100 mM NaCl, 10 mM magnesium chloride, 0.1% bovine serum albumin, 0.2 mM sodium orthovanadate(V), 1 mM ethylene glycol-bis(2-aminoethyl ether)-N,N,N′,N′-tetraacetic acid (EGTA), 5 mM disodium β-glycerophosphate, 2 mM dithiothreitol, 0.4 mM ATP and 3 μM FL-Peptide 7 (manufactured by Caliper Life Sciences, Inc.) was added in equal amount (10 μl in total). The resulting liquid was allowed to react at 25° C. for 2 hours, then 10 μl of 20 mM EDTA was added thereto to stop the reaction.
To detect phosphorylated fluorescent substrates, the reaction mixture was applied to a measuring device, LabChip EZ Reader II manufactured by Caliper Life Science, Inc., for detecting fluorescence by using differences in mobility due to differences in charge. The setting conditions for the device were pressure, −1.5 PSI; upstream voltage, −2250 V; downstream voltage, −400 V; post sample buffer sip time, 40 seconds; final delay, 120 seconds; and peak order, Product First.
A conversion rate was calculated from the peak heights of the obtained substrate and product. The conversion rate when not containing a compound was used as a control, and a concentration dependent curve was made by plotting the rate of increase in activity to the control at each concentration of a compound.

SMILES | EC150 | Emax
COC(=O)N[C@H]1CC[C@H](c2ccc(-c3nc4cc(O[C@@H]5CO[C@H]6[C@@H]5OC[C@H]6O)[nH]c4cc3F)cc2)CC1 [Compound I-1-39] | 13 nM | 552%
CCC(=O)NC1CC(c2ccc(-c3nc4cc(O[C@@H]5CO[C@H]6[C@@H]5OC[C@H]6O)[nH]c4cc3F)cc2)C1 (stereo partly shown) [Compound I-1-40] | 29 nM | 541%
CC(=O)N[C@H]1CC[C@H](c2ccc(-c3nc4cc(O[C@@H]5CO[C@H]6[C@@H]5OC[C@H]6O)[nH]c4cc3F)cc2)CC1 [Compound I-1-41] | 7.8 nM | 562%
O=S1(=Nc2ccc(-c3ccc(-c4nc5cc(O[C@@H]6CO[C@H]7[C@@H]6OC[C@H]7O)[nH]c5cc4F)cc3)cc2)CCOCC1 [Compound I-1-42] | 5.3 nM | 472%
COC(=O)N1CC=C(c2ccc(-c3nc4cc(O[C@@H]5CO[C@H]6[C@@H]5OC[C@H]6O)[nH]c4cc3F)cc2)CC1 [Compound I-1-43] | 7 nM | 514%
CS(=O)(=O)N[C@H]1CC[C@H](c2ccc(-c3nc4cc(O[C@@H]5CO[C@H]6[C@@H]5OC[C@H]6O)[nH]c4cc3F)cc2)CC1 [Compound I-1-45] | 19 nM | 482%
CS(C)(=O)=Nc1ccc(-c2ccc(-c3nc4cc(O[C@H]5CCOC5)[nH]c4cc3F)cc2)cc1 [Compound I-1-46] | 6.6 nM | 276%
Cc1cc(-c2ccc(N=S(C)(C)=O)cc2)ccc1-c1nc2cc(O[C@@H]3CO[C@H]4[C@@H]3OC[C@H]4O)[nH]c2cc1F [Compound I-1-48] | 2.9 nM | 576%
CNC(=O)OC1CCN(c2ccc(-c3nc4cc(O[C@@H]5CO[C@H]6[C@@H]5OC[C@H]6O)[nH]c4cc3F)cc2)CC1 [Compound I-1-49] | 19 nM | 551%
CN(C)C(=O)OC1CCN(c2ccc(-c3nc4cc(O[C@@H]5CO[C@H]6[C@@H]5OC[C@H]6O)[nH]c4cc3F)cc2)CC1 [Compound I-1-50] | 23 nM | 539%
O[C@@H]1CO[C@H]2[C@@H]1OC[C@H]2Oc1cc2nc(-c3ccc(C4=CCN(C5=NCCO5)CC4)cc3)c(F)cc2[nH]1 [Compound I-1-51] | 12 nM | 486%
NC(=O)c1ccc(-c2ccc(-c3nc4cc(O[C@@H]5CO[C@H]6[C@@H]5OC[C@H]6O)[nH]c4cc3F)cc2)cc1F [Compound I-1-52] | 2.2 nM | 469%
CS(=O)(=O)Nc1ccc(-c2ccc(-c3nc4cc(O[C@@H]5CO[C@H]6[C@@H]5OC[C@H]6O)[nH]c4cc3F)cc2)cc1 [Compound I-1-53] | 1.6 nM | 533%
CNC(=O)c1ccc(-c2ccc(-c3nc4cc(O[C@@H]5CO[C@H]6[C@@H]5OC[C@H]6O)[nH]c4cc3F)cc2)cc1F [Compound I-1-54] | 3.3 nM | 416%
CNC(=O)c1ccc(-c2ccc(-c3nc4cc(O[C@@H]5CO[C@H]6[C@@H]5OC[C@H]6O)[nH]c4cc3F)cc2)cc1 [Compound I-1-55] | 0.34 nM | 431%
COC(=O)N1CCN(c2ccc(-c3nc4cc(O[C@@H]5CO[C@H]6[C@@H]5OC[C@H]6O)[nH]c4cc3F)cc2)CC1 [Compound I-1-57] | 32 nM | 550%
O=C1NCCN1c1ccc(-c2ccc(-c3nc4cc(O[C@@H]5CO[C@H]6[C@@H]5OC[C@H]6O)[nH]c4cc3F)cc2)cc1 [Compound I-1-58] | 1.3 nM | 494%

SMILES | EC150 | Emax
OC1CCN(c2ccc(-c3ccc(-c4nc5cc(O[C@@H]6CO[C@H]7[C@@H]6OC[C@H]7O)[nH]c5cc4F)cc3)cc2)C1 (stereo partly shown) [Compound I-1-59] | 2.9 nM | 470%
O[C@@H]1CO[C@H]2[C@@H]1OC[C@H]2Oc1cc2nc(-c3ccc(-c4ccc(NC5=NCCO5)cc4)cc3)c(F)cc2[nH]1 [Compound I-1-61] | 2.3 nM | 383%
COCCOC1CCN(c2ccc(-c3nc4cc(O[C@@H]5CO[C@H]6[C@@H]5OC[C@H]6O)[nH]c4cc3F)cc2)C1 (stereo partly shown) [Compound I-1-62] | 21 nM | 392%
O[C@@H]1CO[C@H]2[C@@H]1OC[C@H]2Oc1cc2nc(-c3ccc(-c4ccc(OC5CNC5)cc4)cc3)c(F)cc2[nH]1 [Compound I-1-63] | 3.2 nM | 361%
CN(C)CCOc1ccc(-c2ccc(-c3nc4cc(O[C@@H]5CO[C@H]6[C@@H]5OC[C@H]6O)[nH]c4cc3F)cc2)cc1 [Compound I-1-68] | 2.5 nM | 360%
CNCCOc1ccc(-c2ccc(-c3nc4cc(O[C@@H]5CO[C@H]6[C@@H]5OC[C@H]6O)[nH]c4cc3F)cc2)cc1 [Compound I-1-69] | 1.6 nM | 359%
O[C@@H]1CO[C@H]2[C@@H]1OC[C@H]2Oc1cc2nc(-c3ccc(-c4ccc(OC5CNCC5F)cc4)cc3)c(F)cc2[nH]1 (stereo partly shown) [Compound I-1-71] | 4.33 nM | 340%
OCCOc1ccc(-c2ccc(-c3nc4cc(O[C@@H]5CO[C@H]6[C@@H]5OC[C@H]6O)[nH]c4cc3F)cc2)cc1 [Compound I-1-72] | 3 nM | 353%
COC(=O)NC1CC=C(c2ccc(-c3nc4cc(O[C@@H]5CO[C@H](CO)C5)[nH]c4cc3F)cc2)CC1 (stereo partly shown) [Compound I-2-01] | – | 376%
COCCOc1ccc(-c2ccc(-c3nc4cc(O[C@@H]5CO[C@H](CO)C5)[nH]c4cc3F)cc2)cc1 [Compound I-2-02] | – | 537%
CNS(C)(=O)=Nc1ccc(-c2ccc(-c3nc4cc(O[C@@H]5CO[C@H]6[C@@H]5OC[C@H]6O)[nH]c4cc3F)cc2)cc1 (stereo partly shown) [Compound I-2-04] | 0.67 nM | 638%
O=C(Nc1ccc(-c2ccc(-c3nc4cc(O[C@@H]5CO[C@H]6[C@@H]5OC[C@H]6O)[nH]c4cc3F)cc2)cc1)[C@@H]1C[C@@H]1F [Compound I-2-05] | 6.8 nM | 632%
COCC(=O)Nc1ccc(-c2ccc(-c3nc4cc(O[C@@H]5CO[C@H]6[C@@H]5OC[C@H]6O)[nH]c4cc3F)cc2)cc1 [Compound I-2-10] | 2.9 nM | 636%
CN(C)S(=N)(=O)c1ccc(-c2ccc(-c3nc4cc(O[C@@H]5CO[C@H]6[C@@H]5OC[C@H]6O)[nH]c4cc3F)cc2)cc1 (stereo partly shown) [Compound I-2-11] | 2.1 nM | 408%
COCCN(C)c1ccc(-c2ccc(-c3nc4cc(O[C@@H]5CO[C@H]6[C@@H]5OC[C@H]6O)[nH]c4cc3F)cc2)cc1 [Compound I-2-12] | 6.9 nM | 367%
CC(C)(O)/C=C/c1ccc(-c2nc3cc(O[C@@H]4CO[C@H]5[C@@H]4OC[C@H]5O)[nH]c3cc2F)cc1 [Compound I-2-14] | 9.9 nM | 507%
